Results: ChEMBL document CHEMBL1201862, “PubChem BioAssay data set” (2004)
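How tested: cells in 96-well plates exposed to compound for 48 hours at five concentrations. Here, GI50 denotes the concentration required for 50% inhibition of growth.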 Active and inactive are the calls of the source. Cut-off read from the data, not from the text of the source: active = GI50 up to about 1.1 µM and inactive = higher. Where a SMILES comes first, the peptide text is derived from it. The star is where a group is joined. Cbz = O=C(OCc1ccccc1)*; Bn = c1ccc(C*)cc1

What was measured:
Test in all cases: NCI anticancer screen, dose series, 48 h
[1] = tested on: BT-549
[2] = tested on: KM-20L2
[3] = tested on: RXF 631
[4] = tested on: HOP-18
[5] = tested on: XF498
[6] = tested on: DLD-1
[7] = tested on: DMS-273
[8] = tested on: M19-MEL
[9] = tested on: SNB-78

COc1ccc2c(c1)CCC(CN1CCN(CCOC(c3ccccc3)c3ccccc3)CC1)C2O (stereo not given)
GI50 [1]: 14 µM (inactive)

OC1CSCCSCCCSCCSC1
GI50 [1]: > 100 µM (inactive)

COc1ccc(/C=N/n2cnc3[nH]c(C)c(Cc4ccccc4)c3c2=N)cc1
GI50 [1]: 75 µM (inactive)

Cc1ccc(-c2c(C#N)c(N)nc3c2CCS(=O)(=O)c2ccccc2-3)cc1
GI50 [1]: 95.3 µM (inactive)

CC1=C(C(=O)Nc2ccccc2)C(c2ccc3c(c2)OCO3)C(C(=O)Nc2ccccc2)=C(C)N1
GI50 [2]: > 10 µM (inactive) | GI50 [3]: 28.7 µM (inactive) | GI50 [4]: 41.5 µM (inactive) | GI50 [5]: 24.2 µM (inactive) | GI50 [6]: 36.8 µM (inactive) | GI50 [7]: 26.7 µM (inactive) | GI50 [8]: 40.4 µM (inactive)

CC1=C2[C@@H](c3ccccc3)C3C=CC2(C=C3C(F)(F)F)N(C(=O)NC2CCCCC2)C1=O (stereo not given in full)
GI50 [2]: 93.1 µM (inactive) | GI50 [3]: 39.7 µM (inactive) | GI50 [4]: > 100 µM (inactive) | GI50 [5]: > 100 µM (inactive) | GI50 [6]: > 100 µM (inactive) | GI50 [9]: 36.1 µM (inactive) | GI50 [7]: 80 µM (inactive) | GI50 [8]: 54.6 µM (inactive)

O=P(O)(O)CN1CCN(CP(=O)(O)O)CCN(CP(=O)(O)O)CCN(CP(=O)(O)O)CC1
GI50 [1]: 35.6 µM (inactive)

Nc1c(/N=N/c2ccc(-c3ccc(/N=N/c4c(O)ccc5cc(S(=O)(=O)O)cc(S(=O)(=O)O)c45)cc3)cc2)c(S(=O)(=O)O)cc2cc(S(=O)(=O)O)c(/N=N/c3ccccc3)c(O)c12
GI50 [4]: > 100 µM (inactive) | GI50 [5]: > 67.6 µM (inactive) | GI50 [6]: > 100 µM (inactive) | GI50 [9]: > 84.3 µM (inactive) | GI50 [7]: > 86.9 µM (inactive) | GI50 [8]: > 100 µM (inactive)

CC1(C)C[C@H]2C=C(C=O)[C@]34C[C@]3(C(=O)OC4O)[C@H]2C1 (stereo not given in full)
GI50 [1]: 1.97 µM (inactive)

COCCOc1nc(-c2ccccc2)nc2ccccc12
GI50 [1]: 35.9 µM (inactive)

O=C(Cc1ccccc1)NN1C(=O)/C(=C\c2ccc(O)cc2)S/C1=N\c1ccccc1
GI50 [1]: > 100 µM (inactive)

COc1cccc(C2SC(=N)Nc3c2c(C)nn3C(=O)Cc2ccccc2)c1 (stereo not given)
GI50 [1]: > 100 µM (inactive)

O=C(O)CN1C(=O)OC(c2ccccc2)C1=O (stereo not given)
GI50 [1]: > 100 µM (inactive)

CC(=O)N1OC(C)CC1Nc1ccc(Br)cc1 (stereo not given)
GI50 [1]: 65.3 µM (inactive)

CCCCCCCCCC/C=C/C=O
GI50 [2]: > 100 µM (inactive) | GI50 [4]: > 100 µM (inactive) | GI50 [5]: > 100 µM (inactive) | GI50 [6]: > 100 µM (inactive) | GI50 [9]: > 100 µM (inactive) | GI50 [7]: > 100 µM (inactive) | GI50 [8]: > 100 µM (inactive)

O=Cc1cccc2ccc3ccccc3c12
GI50 [1]: 30.5 µM (inactive)

OCc1ccccc1C1CSCSC1
GI50 [5]: > 100 µM (inactive) | GI50 [6]: > 100 µM (inactive) | GI50 [9]: > 100 µM (inactive) | GI50 [7]: > 100 µM (inactive) | GI50 [8]: > 100 µM (inactive)

N/C(S)=N/N=C/c1ccc(O)cn1
GI50 [3]: 31.2 µM (inactive) | GI50 [4]: 27.1 µM (inactive) | GI50 [5]: 12.4 µM (inactive) | GI50 [1]: 44.5 µM (inactive) | GI50 [6]: 21.4 µM (inactive) | GI50 [7]: 3.75 µM (inactive) | GI50 [8]: 11.1 µM (inactive)

CCCCN(CC)c1nc(C)nc2c1c(C)c(C)n2-c1c(C)cc(C)cc1C [ANTALARMIN]
GI50 [1]: 19.7 µM (inactive)

COc1ccc(Nc2nc3ccccc3nc2-c2cccs2)cc1
GI50 [2]: 60 µM (inactive) | GI50 [4]: > 100 µM (inactive) | GI50 [5]: 78.2 µM (inactive) | GI50 [6]: > 100 µM (inactive) | GI50 [9]: 39.5 µM (inactive) | GI50 [7]: > 100 µM (inactive)

COc1cc(OC)c2nc(C)c3c(c2c1)OCC3
GI50 [1]: > 100 µM (inactive)

Nc1c2c(=O)[nH]c(=O)c2c(N)c2c(=O)c3ccccc3c(=O)c12
GI50 [1]: 1.99 µM (inactive)

COc1cc2oc(-c3ccc(O)cc3)cc(=O)c2c(O)c1C1OC(CO)C(O)C(O)C1O (stereo not given)
GI50 [2]: > 100 µM (inactive) | GI50 [4]: > 100 µM (inactive) | GI50 [5]: > 100 µM (inactive) | GI50 [6]: > 100 µM (inactive) | GI50 [9]: > 100 µM (inactive) | GI50 [7]: 62.4 µM (inactive) | GI50 [8]: > 100 µM (inactive)

CC1=C(C(=O)Nc2cccc(Cl)c2)C(c2ccc([N+](=O)[O-])cc2)C(C(=O)Nc2cccc(Cl)c2)=C(C)N1
GI50 [2]: 20.2 µM (inactive) | GI50 [3]: 19.8 µM (inactive) | GI50 [4]: 16.5 µM (inactive) | GI50 [6]: 21.8 µM (inactive) | GI50 [9]: 36.1 µM (inactive)

COc1ccc2cc(/C=N\NC(=O)Nc3cccc4ccccc34)ccc2c1
GI50 [1]: 49.4 µM (inactive)

C1CCC(OCc2nnn3c2CCC3)OC1 (stereo not given)
GI50 [2]: > 100 µM (inactive) | GI50 [4]: < 0.01 µM (active) | GI50 [5]: > 100 µM (inactive) | GI50 [6]: > 100 µM (inactive) | GI50 [9]: > 100 µM (inactive) | GI50 [8]: > 100 µM (inactive)

C=CC[N+](CCO)(CCO)CCCCCCCCCCCCCCCCCC
GI50 [2]: 3.66 µM (inactive) | GI50 [4]: 8.34 µM (inactive) | GI50 [6]: 5.93 µM (inactive) | GI50 [9]: 3.12 µM (inactive) | GI50 [7]: 2.26 µM (inactive) | GI50 [8]: 3.34 µM (inactive)

CC1(c2nc3ccccc3[nH]2)CCC(CO)C(C)(C)O1 (stereo not given)
GI50 [1]: > 100 µM (inactive)

CCCCOC(=O)NC(Nc1ccc(S(N)(=O)=O)cc1)(C(F)(F)F)C(F)(F)F
GI50 [1]: > 100 µM (inactive)

CCOC(=O)C1(Cc2ccc3ccccc3c2)CCCCC(=O)N1 (stereo not given)
GI50 [2]: 30.5 µM (inactive) | GI50 [4]: > 100 µM (inactive) | GI50 [5]: 30.4 µM (inactive) | GI50 [6]: 25.6 µM (inactive) | GI50 [9]: 52.7 µM (inactive) | GI50 [7]: 13.5 µM (inactive) | GI50 [8]: 48.6 µM (inactive)

Cn1cc(C(=O)c2ccccc2)ccc1=O
GI50 [2]: > 100 µM (inactive) | GI50 [5]: > 100 µM (inactive) | GI50 [6]: > 100 µM (inactive) | GI50 [9]: > 100 µM (inactive) | GI50 [7]: > 100 µM (inactive) | GI50 [8]: > 100 µM (inactive)

COC(=O)C(Cc1ccc(O)cc1)NC(=O)C(COCc1ccccc1)NC(=O)OCc1ccccc1 (stereo not given) (Cbz-Ser(Bn)-Tyr-OMe; configuration not given here)
GI50 [1]: 72.3 µM (inactive)

COc1cccc(Nc2nc(-c3cccs3)nc3ccc(Br)cc23)c1
GI50 [1]: > 100 µM (inactive)

O=C(/C(=C/c1ccc(O)cc1)c1ccccc1)c1ccccc1
GI50 [3]: 15.3 µM (inactive) | GI50 [4]: 18.8 µM (inactive) | GI50 [6]: 15.9 µM (inactive) | GI50 [9]: 24 µM (inactive) | GI50 [8]: 18.4 µM (inactive)

COc1ccc(N2C(=O)c3c4c(c5c([nH]c6ncccc65)c3C2=O)CCC(C(C)(C)C)C4)cc1 (stereo not given)
GI50 [1]: 84.9 µM (inactive)

C/C=C/c1cc2c(c(=O)o1)C(=O)[C@@H](O)[C@H](C)O2
GI50 [2]: 16.1 µM (inactive) | GI50 [4]: 17.5 µM (inactive) | GI50 [6]: 6.28 µM (inactive) | GI50 [9]: 18.8 µM (inactive) | GI50 [7]: 16 µM (inactive) | GI50 [8]: 13.4 µM (inactive)
